Converted amounts (≈) assume the structure as drawn. The source made the active and inactive calls. No cut-off for these calls is given here.
Legend:
Plasmodium falciparum [1] = assay: Antiplasmodial activity against Plasmodium falciparum Dd2 assessed as inhibition of [3H]hypoxanthine incorporation incubated for 24 hrs prior to [3H]hypoxanthine addition measured after 24 hrs by beta scintillation counting; format: functional, organism-based
[2] = biological target: T1, 5-hydroxytryptamine receptor 2C (Homo sapiens, UniProt P28335); assay: Inhibition of human 5HT2c receptor expressed in CHO-K1 cells assessed as inhibition of 5HT-induced calcium influx measured up to 30 secs by aequorin luminescence assay; format: functional, cell-based
T1 sequence (P28335 whole entry): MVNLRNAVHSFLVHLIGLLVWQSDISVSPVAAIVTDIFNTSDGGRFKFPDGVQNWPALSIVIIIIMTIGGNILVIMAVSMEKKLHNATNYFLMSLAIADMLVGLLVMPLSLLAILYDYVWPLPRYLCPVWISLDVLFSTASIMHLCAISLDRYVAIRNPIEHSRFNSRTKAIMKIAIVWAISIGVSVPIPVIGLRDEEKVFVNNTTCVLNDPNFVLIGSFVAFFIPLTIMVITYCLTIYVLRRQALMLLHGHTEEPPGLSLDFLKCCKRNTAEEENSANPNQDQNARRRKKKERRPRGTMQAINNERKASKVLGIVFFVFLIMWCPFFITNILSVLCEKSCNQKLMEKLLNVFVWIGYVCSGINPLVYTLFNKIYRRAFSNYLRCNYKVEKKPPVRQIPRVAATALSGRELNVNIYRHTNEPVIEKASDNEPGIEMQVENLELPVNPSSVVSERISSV

Plasmodium falciparum [3] = assay: microbe, parasite or virus in culture; conditions: 3D7 A
Description: Antiplasmodial activity against Plasmodium falciparum 3D7A assessed as inhibition of [3H]hypoxanthine incorporation incubated for 24 hrs prior to [3H]hypoxanthine addition measured after 24 hrs by beta scintillation counting

Plasmodium berghei [4] = assay: Antimalarial activity against Plasmodium berghei ANKA infected in CD1 mouse assessed as inhibition of parasitemia at 50 mg/kg, po administered QD for 2 days measured after 4 days by YOYO1-based flow cytometric analysis relative to vehicle-treated control; format: functional
Plasmodium berghei [5] = assay: Antimalarial activity against Plasmodium berghei ANKA assessed as reduction in viable parasites at 10 times IC50 after 72 hrs; format: functional, organism-based
Plasmodium falciparum [6] = assay: Antiplasmodial activity against Plasmodium falciparum assessed as pyknotic phenotype after 24 hrs by Giemsa-staining method; format: functional, organism-based
[7] = Plasma protein binding in mouse at 1 ug/mL by equilibrium dialysis method; format: ADME, cell-free; conditions: read-out: PPB (converted)
Cytochrome P450 2C9 = Cytochrome P450 2C9 (Homo sapiens, UniProt P11712); assay: Inhibition of human CYP2C9 using 7-methoxy-4-triflouromethylcoumarin-3-acetic acid as substrate incubated for 30 mins prior to substrate addition measured up to 10 mins by fluorimetry; format: ADME
Sequence of Cytochrome P450 2C9 (P11712 whole entry): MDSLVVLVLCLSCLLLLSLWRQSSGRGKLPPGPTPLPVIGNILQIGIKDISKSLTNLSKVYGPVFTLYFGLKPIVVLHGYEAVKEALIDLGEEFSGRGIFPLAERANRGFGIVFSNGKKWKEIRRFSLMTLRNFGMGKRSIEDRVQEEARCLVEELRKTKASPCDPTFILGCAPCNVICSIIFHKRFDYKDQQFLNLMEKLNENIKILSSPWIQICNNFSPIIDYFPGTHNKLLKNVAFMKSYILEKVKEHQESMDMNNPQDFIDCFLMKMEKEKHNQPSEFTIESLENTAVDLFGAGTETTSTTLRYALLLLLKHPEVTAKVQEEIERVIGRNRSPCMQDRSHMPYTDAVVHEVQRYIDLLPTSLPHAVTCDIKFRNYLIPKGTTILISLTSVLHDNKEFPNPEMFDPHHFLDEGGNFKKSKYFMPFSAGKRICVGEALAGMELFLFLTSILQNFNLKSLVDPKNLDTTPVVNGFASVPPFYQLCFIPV

Cytochrome P450 2D6 = Cytochrome P450 2D6 (Homo sapiens, UniProt P10635); assay: Inhibition of human CYP2D6 using 4-methylaminomethyl-7-methoxycoumarin as substrate incubated for 30 mins prior to substrate addition measured up to 10 mins by fluorimetry; format: ADME
Sequence of Cytochrome P450 2D6 (P10635 whole entry): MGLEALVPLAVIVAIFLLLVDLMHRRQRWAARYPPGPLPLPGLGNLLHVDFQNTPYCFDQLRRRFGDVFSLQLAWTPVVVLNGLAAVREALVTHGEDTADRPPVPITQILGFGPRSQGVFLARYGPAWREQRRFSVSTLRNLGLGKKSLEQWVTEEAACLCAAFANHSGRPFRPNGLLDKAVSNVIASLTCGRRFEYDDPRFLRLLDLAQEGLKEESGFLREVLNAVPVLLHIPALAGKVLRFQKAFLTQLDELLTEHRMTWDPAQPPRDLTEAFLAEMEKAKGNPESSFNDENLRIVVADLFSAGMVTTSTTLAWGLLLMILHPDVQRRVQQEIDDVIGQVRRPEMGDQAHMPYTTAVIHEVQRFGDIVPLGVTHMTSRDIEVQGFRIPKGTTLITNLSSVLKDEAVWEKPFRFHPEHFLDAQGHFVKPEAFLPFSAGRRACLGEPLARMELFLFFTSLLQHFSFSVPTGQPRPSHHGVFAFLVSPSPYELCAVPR

Cytochrome P450 3A4 = Cytochrome P450 3A4 (Homo sapiens, UniProt P08684); assay: Inhibition of human CYP3A4 using 7-benzyloxyquinoline as substrate incubated for 30 mins prior to substrate addition measured up to 10 mins by fluorimetry; format: ADME
Sequence of Cytochrome P450 3A4 (P08684 whole entry): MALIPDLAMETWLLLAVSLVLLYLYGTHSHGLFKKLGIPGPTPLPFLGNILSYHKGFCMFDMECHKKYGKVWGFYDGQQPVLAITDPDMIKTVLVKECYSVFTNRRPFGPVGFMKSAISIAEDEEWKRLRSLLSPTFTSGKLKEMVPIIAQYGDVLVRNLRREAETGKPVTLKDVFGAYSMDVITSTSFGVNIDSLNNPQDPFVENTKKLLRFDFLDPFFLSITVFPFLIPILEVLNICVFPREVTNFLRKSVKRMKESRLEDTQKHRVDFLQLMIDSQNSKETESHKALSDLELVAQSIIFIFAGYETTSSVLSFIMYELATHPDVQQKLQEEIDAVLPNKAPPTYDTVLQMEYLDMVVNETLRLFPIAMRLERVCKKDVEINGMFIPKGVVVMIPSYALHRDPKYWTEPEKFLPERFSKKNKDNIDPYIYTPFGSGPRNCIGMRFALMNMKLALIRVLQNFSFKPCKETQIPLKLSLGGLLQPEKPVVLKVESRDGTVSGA

Cytochrome P450 2C19 = Cytochrome P450 2C19 (Homo sapiens, UniProt P33261); assay: Inhibition of human CYP2C19 using 3-butyryl-7-methoxycoumarin as substrate incubated for 30 mins prior to substrate addition measured up to 10 mins by fluorimetry; format: ADME
Sequence of Cytochrome P450 2C19 (P33261 whole entry): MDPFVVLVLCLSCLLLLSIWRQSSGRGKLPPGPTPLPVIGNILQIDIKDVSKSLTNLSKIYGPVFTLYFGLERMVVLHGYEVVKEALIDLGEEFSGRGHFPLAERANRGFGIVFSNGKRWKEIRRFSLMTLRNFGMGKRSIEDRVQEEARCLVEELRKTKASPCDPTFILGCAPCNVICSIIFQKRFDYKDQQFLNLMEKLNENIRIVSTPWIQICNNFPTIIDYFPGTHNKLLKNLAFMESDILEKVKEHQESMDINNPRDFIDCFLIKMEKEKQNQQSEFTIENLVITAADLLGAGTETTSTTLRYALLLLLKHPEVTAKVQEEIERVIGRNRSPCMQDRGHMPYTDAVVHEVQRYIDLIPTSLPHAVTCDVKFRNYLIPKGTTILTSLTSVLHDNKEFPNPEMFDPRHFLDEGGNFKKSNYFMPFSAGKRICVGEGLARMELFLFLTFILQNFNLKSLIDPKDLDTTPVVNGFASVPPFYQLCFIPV

[8] = biological target: Voltage-gated inwardly rectifying potassium channel KCNH2 (Homo sapiens, UniProt Q12809); assay: Displacement of Cy3b-tagged dofetilide from human ERG expressed in CHO cells by fluorescence polarization assay
Sequence of Voltage-gated inwardly rectifying potassium channel KCNH2 (Q12809 whole entry): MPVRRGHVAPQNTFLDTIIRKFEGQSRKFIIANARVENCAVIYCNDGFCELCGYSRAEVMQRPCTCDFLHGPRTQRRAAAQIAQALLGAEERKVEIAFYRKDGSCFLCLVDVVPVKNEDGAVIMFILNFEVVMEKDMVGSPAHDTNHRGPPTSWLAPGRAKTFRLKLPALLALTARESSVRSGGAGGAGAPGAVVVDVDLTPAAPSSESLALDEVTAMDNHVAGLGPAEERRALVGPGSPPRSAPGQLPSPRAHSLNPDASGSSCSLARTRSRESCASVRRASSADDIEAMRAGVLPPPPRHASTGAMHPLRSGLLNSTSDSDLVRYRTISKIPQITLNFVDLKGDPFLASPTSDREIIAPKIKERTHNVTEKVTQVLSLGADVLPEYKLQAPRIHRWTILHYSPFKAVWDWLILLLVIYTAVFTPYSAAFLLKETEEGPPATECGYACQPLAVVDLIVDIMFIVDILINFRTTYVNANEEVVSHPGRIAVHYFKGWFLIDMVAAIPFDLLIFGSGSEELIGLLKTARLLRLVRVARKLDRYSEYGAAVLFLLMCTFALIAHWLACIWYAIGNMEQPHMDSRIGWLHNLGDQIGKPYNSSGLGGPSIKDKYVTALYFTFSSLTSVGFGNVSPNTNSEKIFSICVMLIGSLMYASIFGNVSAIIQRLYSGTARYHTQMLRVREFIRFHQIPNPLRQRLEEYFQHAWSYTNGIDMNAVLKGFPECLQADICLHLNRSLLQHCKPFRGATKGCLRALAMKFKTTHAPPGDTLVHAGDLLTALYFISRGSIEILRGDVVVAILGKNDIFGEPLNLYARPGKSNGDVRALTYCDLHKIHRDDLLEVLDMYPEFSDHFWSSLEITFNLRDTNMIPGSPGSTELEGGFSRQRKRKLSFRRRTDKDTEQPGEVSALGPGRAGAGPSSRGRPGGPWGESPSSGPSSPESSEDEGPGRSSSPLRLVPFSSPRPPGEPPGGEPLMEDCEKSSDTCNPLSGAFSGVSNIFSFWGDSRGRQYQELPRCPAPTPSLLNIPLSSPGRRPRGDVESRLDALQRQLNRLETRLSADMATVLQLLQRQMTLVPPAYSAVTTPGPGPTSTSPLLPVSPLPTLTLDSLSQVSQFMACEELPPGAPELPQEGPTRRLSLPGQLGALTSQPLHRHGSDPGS

[9] = Chromatographic hydrophobicity index of the compound at pH 2; format: physicochemical
[10] = Chromatographic hydrophobicity index of the compound at pH 7.4; format: physicochemical
[11] = Chromatographic hydrophobicity index of the compound at pH 10.5; format: physicochemical
[12] = Equilibrium solubility of the compound in phosphate buffer saline after 24 hrs by LC-MS analysis at pH 7.4; format: physicochemical
[13] = Equilibrium solubility of the compound in fasted state simulated intestinal fluid after 24 hrs by LC-MS analysis at pH 6.8; format: physicochemical
[14] = Equilibrium solubility of the compound in fed state simulated intestinal fluid after 24 hrs by LC-MS analysis at pH 5; format: physicochemical
Plasmodium falciparum [15] = assay: Antiplasmodial activity against Plasmodium falciparum 3D7A assessed as inhibition of [3H]hypoxanthine incorporation after 96 hrs by beta scintillation counting; format: functional, organism-based; conditions: 3D7 A
Plasmodium falciparum [16] = assay: Antiplasmodial activity against Plasmodium falciparum assessed as pyknotic phenotype at 10-fold IC50 after 24 hrs by Giemsa-staining method; format: functional, organism-based
Plasmodium falciparum [17] = assay: Antiplasmodial activity against Plasmodium falciparum 3D7A assessed as inhibition of [3H]hypoxanthine incorporation after 72 hrs by beta scintillation counting; format: functional, organism-based; conditions: 3D7 A
[18] = Equilibrium solubility of the compound in simulated gastric fluid after 24 hrs by LC-MS analysis at pH1.2; format: physicochemical; conditions: pH 1.2
Plasmodium falciparum [19] = assay: Selectivity ratio of IC50 for Plasmodium falciparum Dd2 to IC50 for Plasmodium falciparum HB3; format: functional
Plasmodium falciparum [20] = assay: Antiplasmodial activity against Plasmodium falciparum HB3 assessed as inhibition of [3H]hypoxanthine incorporation incubated for 24 hrs prior to [3H]hypoxanthine addition measured after 24 hrs by beta scintillation counting; format: functional, organism-based
[21] = Cytotoxicity against human HepG2 cells after 48 hrs by resazurin reduction assay; format: cell-based; conditions: read-out: TC50
[22] = Cytotoxicity against mouse L1210 cells after 48 hrs by resazurin reduction assay; format: cell-based; conditions: read-out: TC50
[23] = Cytotoxicity against mouse Neuro2a cells after 48 hrs by resazurin reduction assay; format: cell-based, N2a; conditions: read-out: TC50
[24] = Cytotoxicity against rat H9c2(2-1) cells after 48 hrs by resazurin reduction assay; format: cell-based; conditions: read-out: TC50
[25] = Cytotoxicity against MDCK cells after 48 hrs by resazurin reduction assay; format: cell-based, Canis lupus familiaris; conditions: dog, read-out: TC50
Liver = assay: Intrinsic clearance in mouse liver microsomes at 0.5 uM by HPLC analysis; format: ADME, Microsome
Liver microsomes = assay: Intrinsic clearance in human liver microsomes at 0.5 uM by HPLC analysis; format: ADME, Microsome
Albumin = Albumin (Homo sapiens, UniProt P02768); assay: Binding affinity to human serum albumin by HPLC analysis; format: ADME; conditions: isolated protein
Sequence of Albumin (P02768 whole entry): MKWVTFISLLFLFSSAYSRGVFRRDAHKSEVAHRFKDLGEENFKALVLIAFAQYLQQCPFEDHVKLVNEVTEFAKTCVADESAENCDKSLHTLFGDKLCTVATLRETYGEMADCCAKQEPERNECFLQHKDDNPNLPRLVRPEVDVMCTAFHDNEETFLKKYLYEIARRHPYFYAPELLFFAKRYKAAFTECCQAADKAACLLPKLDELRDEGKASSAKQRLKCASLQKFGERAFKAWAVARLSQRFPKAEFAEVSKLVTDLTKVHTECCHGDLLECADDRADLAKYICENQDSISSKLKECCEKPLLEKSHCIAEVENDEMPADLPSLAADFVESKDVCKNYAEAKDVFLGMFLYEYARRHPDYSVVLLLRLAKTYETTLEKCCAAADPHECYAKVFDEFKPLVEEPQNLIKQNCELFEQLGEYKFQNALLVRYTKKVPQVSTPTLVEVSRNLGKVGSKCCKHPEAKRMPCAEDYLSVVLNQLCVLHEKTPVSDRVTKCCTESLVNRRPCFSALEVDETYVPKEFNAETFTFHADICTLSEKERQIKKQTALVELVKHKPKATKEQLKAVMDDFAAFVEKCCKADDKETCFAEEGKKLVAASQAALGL

With COc1cc2c(cc1C(F)(F)F)N(C(=O)Nc1cc(-c3cccnc3)cc(C(F)(F)F)c1)CC2 the IC50 (Plasmodium falciparum [1]) was 0.81 µM, the IC50 [2] was 0.01 µM and the IC50 (Plasmodium falciparum [3]) was 0.14 µM.
In the case of CN1CCN(c2cc3c(cc2Cl)CCN3C(=O)Nc2cc(OC(F)(F)F)cc(-c3cccnc3)c2)CC1, the inhibition in vivo at 50 mg/kg (Plasmodium berghei [4]) is reported as 35%, the Activity (Plasmodium berghei [5]) is reported as “Active” and the IC50 (Plasmodium falciparum [1]) is reported as 0.21 µM. It also gave an IC50 [2] of 10 µM and an IC50 (Plasmodium falciparum [3]) of 0.14 µM.
Work on COc1cc2c(cc1C(F)(F)F)N(C(=O)Nc1cc(OC(F)(F)F)cc(-c3ccccc3)c1)CC2 yielded an IC50 (Plasmodium falciparum [3]) of 2.26 µM.
With C[C@@H]1CC[C@H]2[C@@H](C)C(=O)O[C@@H]3O[C@@]4(C)CC[C@@H]1[C@]32OO4 [ARTEMISININ] the Activity (Plasmodium falciparum [6]) was “Active” and the IC50 (Plasmodium falciparum [3]) was 0.02 µM.
With Cc1ccc2c(c1)N(C(=O)Nc1cc(OC(F)(F)F)cc(-c3cccnc3)c1)CC2 the IC50 (Plasmodium falciparum [3]) was 0.03 µM.
Work on O=C(Nc1cc(OC(F)(F)F)cc(-c2cccnc2)c1)N1CCc2ccc(Br)cc21 yielded an IC50 (Plasmodium falciparum [1]) of 0.64 µM and an IC50 (Plasmodium falciparum [3]) of 0.19 µM.
For COc1cc2c(cc1C(F)(F)F)N(C(=O)Nc1cc(OC(F)(F)F)cc(-c3cccnc3)c1)CC2, the fraction unbound at 1 ug/mL [7] was 0.002, the IC50 (Cytochrome P450 2C9) was 2 µM and the IC50 (Cytochrome P450 2D6) was 13 µM. The IC50 (Cytochrome P450 3A4) was over 50 µM, the IC50 (Cytochrome P450 2C19) was over 50 µM and the Activity [8] was over 16 µM. It also gave a CHI [9] of 3.09, a CHI [10] of 4.22 and a CHI [11] of 4.18. For the same compound, the solubility thermodynamic at 24 h [12] was under 0.1 µg/mL, the solubility thermodynamic at 24 h [13] was under 0.1 µg/mL and the solubility thermodynamic at 24 h [14] was 16.7 µg/mL (≈ 33.6 µM). For the same compound, the IC50 (Plasmodium falciparum [15]) was 0.025 µM, the Activity (Plasmodium falciparum [16]) was “Active” and the IC50 (Plasmodium falciparum [17]) was 0.04 µM. The solubility thermodynamic at 24 h [18] was 1550 µg/mL (≈ 3120 µM), the “Ratio IC50” value (Plasmodium falciparum [19]) was over 10 and the IC50 (Plasmodium falciparum [20]) was 0.09 µM. The IC50 (Plasmodium falciparum [1]) was over 1 µM, the IC50 [2] was 0.05 µM and the CC50 at 48 h [21] was 7 µM. For the same compound, the CC50 at 48 h [22] was 3.2 µM, the CC50 at 48 h [23] was over 12.5 µM and the CC50 at 48 h [24] was over 12.5 µM. The CC50 at 48 h [25] was over 12.5 µM, the CLH (Liver) was under 0.3 mL/min/g and the CLH (Liver microsomes) was under 0.3 mL/min/g. For the same compound, the Activity (Albumin) was 97.8%.
CN1CCN(c2ccc3c(c2)N(C(=O)Nc2cc(OC(F)(F)F)cc(-c4cccnc4)c2)CC3)CC1 showed an IC50 [2] of over 40 µM and an IC50 (Plasmodium falciparum [3]) of 0.49 µM.
With COc1cc2c(cc1C(F)(F)F)N(C(=O)Nc1cc(Br)cc(OC(F)(F)F)c1)CC2 the IC50 [2] was 0.39 µM and the IC50 (Plasmodium falciparum [3]) was 4.84 µM.
With COc1ccc2c(c1)N(C(=O)Nc1cc(OC(F)(F)F)cc(-c3cccnc3)c1)CC2 the IC50 [2] was 0.12 µM and the IC50 (Plasmodium falciparum [3]) was 0.09 µM.
In the case of COc1cc2c(cc1C(F)(F)F)N(C(=O)Nc1cc(OC(F)(F)F)cc(-c3cc[nH]c3)c1)CC2, the IC50 (Plasmodium falciparum [3]) is reported as 1.07 µM.
Compound COc1cc2c(cc1C(F)(F)F)N(C(=O)Nc1cc(OC(F)(F)F)cc(-c3cncnc3)c1)CC2 has an IC50 (Plasmodium falciparum [1]) of over 1 µM and an IC50 (Plasmodium falciparum [3]) of 0.03 µM.
O=C(Nc1cc(OC(F)(F)F)cc(-c2cccnc2)c1)N1CCc2ccccc21 gave an IC50 (Plasmodium falciparum [1]) of 0.02 µM, an IC50 [2] of 1.25 µM and an IC50 (Plasmodium falciparum [3]) of 0.01 µM.
For COc1cc2c(cc1C(F)(F)F)N(C(=O)Nc1cc(Br)cc(-c3cccnc3)c1)CC2, the IC50 (Plasmodium falciparum [1]) was 1.1 µM, the IC50 [2] was 0.01 µM and the IC50 (Plasmodium falciparum [3]) was 0.16 µM.
In the case of O=C(Nc1cc(OC(F)(F)F)cc(-c2cccnc2)c1)N1CCc2cc(F)ccc21, the IC50 (Plasmodium falciparum [3]) is reported as 0.01 µM.
Cc1cc2c(cc1Cl)N(C(=O)Nc1cc(OC(F)(F)F)cc(-c3cccnc3)c1)CC2 gave an IC50 (Plasmodium falciparum [1]) of 0.14 µM and an IC50 (Plasmodium falciparum [3]) of 0.02 µM.
Work on CCc1nc(N)nc(N)c1-c1ccc(Cl)cc1 [PYRIMETHAMINE] yielded an IC50 (Plasmodium falciparum [1]) of over 40 µM and an IC50 (Plasmodium falciparum [3]) of 0.02 µM.
O=C(Nc1cc(OC(F)(F)F)cc(-c2cccnc2)c1)N1CCc2ccc(CO)cc21 gave an IC50 [2] of 0.18 µM and an IC50 (Plasmodium falciparum [3]) of 0.4 µM.
Work on Cc1ccc2c(c1)CCN2C(=O)Nc1cc(OC(F)(F)F)cc(-c2cccnc2)c1 yielded an IC50 (Plasmodium falciparum [1]) of 0.04 µM and an IC50 (Plasmodium falciparum [3]) of 0.01 µM.
For CCN(CC)CCCC(C)Nc1ccnc2cc(Cl)ccc12 (stereo unspecified), the Activity (Plasmodium falciparum [6]) was “Active”.
In the case of O=C(Nc1cc(OC(F)(F)F)cc(-c2cccnc2)c1)N1CCc2ccc(F)cc21, the IC50 (Plasmodium falciparum [1]) is reported as 0.01 µM, the IC50 [2] is reported as 0.6 µM and the CLH (Liver) is reported as 2.1 mL/min/g. The CLH (Liver microsomes) was 0.5 mL/min/g and the IC50 (Plasmodium falciparum [3]) was 0.01 µM.
COc1cc2c(cc1C(F)(F)F)N(C(=O)Nc1cc(F)cc(-c3cccnc3)c1)CC2 showed an IC50 (Plasmodium falciparum [1]) of 2.12 µM, an IC50 [2] of 0.01 µM and an IC50 (Plasmodium falciparum [3]) of 0.43 µM.
For COc1cc2c(cc1C(F)(F)F)N(C(=O)Nc1cc(C)cc(OC(F)(F)F)c1)CC2, the IC50 (Plasmodium falciparum [3]) was over 5 µM.
In the case of COc1cc2c(cc1C(F)(F)F)N(C(=O)Nc1cc(OC(F)(F)F)cc(-c3ccc(C)nc3)c1)CC2, the IC50 (Plasmodium falciparum [1]) is reported as 0.8 µM and the IC50 (Plasmodium falciparum [3]) is reported as 0.29 µM.
O=C(Nc1cc(OC(F)(F)F)cc(-c2cccnc2)c1)N1CCc2cccc(F)c21 showed an IC50 (Plasmodium falciparum [1]) of 1.07 µM, an IC50 [2] of over 40 µM and an IC50 (Plasmodium falciparum [3]) of 0.41 µM.
With O=C(Nc1cc(OC(F)(F)F)cc(-c2cccnc2)c1)N1CCc2cc(C(F)(F)F)ccc21 the IC50 (Plasmodium falciparum [3]) was 0.02 µM.
COc1cc2c(cc1C(F)(F)F)N(C(=O)Nc1cccc(OC(F)(F)F)c1)CC2 gave an IC50 (Plasmodium falciparum [3]) of over 5 µM.
Compound O=C(Nc1cc(OC(F)(F)F)cc(-c2cccnc2)c1)N1CCc2ccc(Cl)cc21 has an IC50 (Plasmodium falciparum [3]) of 0.15 µM.
Compound COc1cc2c(cc1C(F)(F)F)N(C(=O)Nc1cccc(-c3cccnc3)c1)CC2 has an IC50 [2] of 0.007 µM and an IC50 (Plasmodium falciparum [3]) of 4.45 µM.
